Among the test systems are CCRF-CEM leukemia; HOP-62 NSCLC; KM12 colon; LOX IMVI melanoma; MDA-N; NCI/ADR-RES ovarian; OVCAR-8 ovarian; SF-295 CNS; SK-MEL-5 melanoma; SR leukemia.
What all share (test): NCI-60 cell line screen, 48 h

Structures are written as SMILES.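 Dose response: 5 concentrations. Exposure: 48 h. Format: 96-well plates. Endpoint: linear interpolation; highest concentration if not reached. Definition used: TGI = concentration required for complete inhibition of growth.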 A value given as a limit tells only on which side of the number the result lay.

Consider `NC(=O)NN=C1Cc2ccccc2C1`, for which the TGI with CCRF-CEM leukemia, in the test with HOP-62 NSCLC, in the test with KM12 colon, with LOX IMVI melanoma, in the test on MDA-N and with NCI/ADR-RES ovarian was over 100 µM throughout. Moreover, the TGI in the test with OVCAR-8 ovarian, in the test with SF-295 CNS, with SK-MEL-5 melanoma and in the test with SR leukemia was over 100 µM throughout.
Turning to `COc1ccc(-c2cc3cc(Cl)cc(Cl)c3oc2=O)cc1OC`, the TGI in the test on CCRF-CEM leukemia, in the test with HOP-62 NSCLC, in the test on KM12 colon, in the test with LOX IMVI melanoma, in the test with MDA-N and in the test with NCI/ADR-RES ovarian was over 100 µM throughout. Further, the TGI in the test on OVCAR-8 ovarian, with SF-295 CNS, in the test with SK-MEL-5 melanoma and with SR leukemia was over 100 µM in each case.
For the molecule `Cc1cc(-c2cc(C(C)(C)C)c(O)c(C(C)(C)C)c2)c(C)cc1-c1cc(C(C)(C)C)c(O)c(C(C)(C)C)c1`, the TGI with CCRF-CEM leukemia, with HOP-62 NSCLC, in the test on KM12 colon, with LOX IMVI melanoma, in the test on MDA-N and in the test with NCI/ADR-RES ovarian was over 100 µM in each case. Moreover, the TGI with OVCAR-8 ovarian, with SF-295 CNS, in the test on SK-MEL-5 melanoma and in the test on SR leukemia was over 100 µM in each case.
With `CC(C)=CCc1c(O)cc2oc(-c3ccc(O)cc3O)cc(=O)c2c1O`, the TGI in the test with CCRF-CEM leukemia was 28.2 µM; in the test on HOP-62 NSCLC it was over 92.8 µM; with KM12 colon, 50.8 µM; in the test on LOX IMVI melanoma it was 59.1 µM; in the test with MDA-N it was 72.3 µM; with NCI/ADR-RES ovarian, over 94.4 µM. Also, the TGI in the test on OVCAR-8 ovarian was over 100 µM; in the test on SF-295 CNS, over 100 µM; with SK-MEL-5 melanoma, 38.7 µM; in the test on SR leukemia, over 65.6 µM.
Take `O=C1CC[C@@]23CC(=O)O[C@@H]2CCCC3C1` (stereo not given in full): the TGI with CCRF-CEM leukemia, in the test with HOP-62 NSCLC, with KM12 colon, in the test with LOX IMVI melanoma, in the test on MDA-N and in the test with NCI/ADR-RES ovarian was over 100 µM in each case. Moreover, the TGI in the test on OVCAR-8 ovarian, in the test with SF-295 CNS, in the test on SK-MEL-5 melanoma and in the test with SR leukemia was over 100 µM in each case.
Take `OC(CC(O)(C(F)(F)Cl)C(F)(F)Cl)c1ccccc1` (stereo not given): the TGI in the test with CCRF-CEM leukemia, with HOP-62 NSCLC, with KM12 colon, in the test on LOX IMVI melanoma, with MDA-N and in the test on NCI/ADR-RES ovarian was over 10 µM each time. Besides, the TGI in the test on OVCAR-8 ovarian was over 10 µM; with SF-295 CNS it was over 10 µM; with SK-MEL-5 melanoma, 0.0502 µM; with SR leukemia, over 10 µM.
Regarding `CC1=C(C(=O)OCCO[N+](=O)[O-])C(c2ccccc2[N+](=O)[O-])C(C(=O)OC(C)C)=C(C)N1` (stereo not given), the TGI in the test on CCRF-CEM leukemia was over 100 µM; with HOP-62 NSCLC, 33.8 µM; in the test with KM12 colon it was 28.1 µM; in the test with LOX IMVI melanoma, 32.3 µM; in the test with MDA-N, 31.1 µM; in the test with NCI/ADR-RES ovarian, 51.7 µM. The TGI in the test on OVCAR-8 ovarian is 63.7 µM; in the test with SF-295 CNS it was 34.1 µM; in the test with SK-MEL-5 melanoma it was 26.8 µM; in the test on SR leukemia, over 100 µM.
For the molecule `COC1(CC[C@H](C)COC2OC(CO)C(O)C(O)C2O)O[C@H]2C[C@H]3[C@@H]4CC=C5C[C@@H](OC6OC(CO)C(OC7OC(C)C(O)C(O)C7O)C(O)C6OC6OC(C)C(O)C(O)C6O)CC[C@]5(C)[C@H]4CC[C@]3(C)[C@H]2[C@@H]1C` (stereo not given in full), the TGI in the test on CCRF-CEM leukemia was over 37.1 µM; in the test with HOP-62 NSCLC it was 4.09 µM; in the test with KM12 colon it was 6.65 µM; in the test on LOX IMVI melanoma, 3.6 µM; in the test on MDA-N, 9.57 µM; in the test on NCI/ADR-RES ovarian, 11.1 µM. The TGI in the test with OVCAR-8 ovarian is 10.1 µM; in the test with SF-295 CNS it was 13.6 µM; in the test on SK-MEL-5 melanoma, over 28.6 µM; in the test on SR leukemia, over 100 µM.
For `CCOC(=O)[C@@H](Cc1ccc(CCl)cc1)NC(C)=O`, the TGI was over 100 µM in the test on CCRF-CEM leukemia; 75.1 µM in the test with HOP-62 NSCLC; 40.5 µM in the test on KM12 colon; 37 µM in the test with LOX IMVI melanoma; 40.2 µM in the test on MDA-N; 43.9 µM with NCI/ADR-RES ovarian. For the same molecule, the TGI with OVCAR-8 ovarian is over 100 µM; with SF-295 CNS, over 100 µM; with SK-MEL-5 melanoma, 31.5 µM; in the test on SR leukemia, over 100 µM.
As for `CCN(CC)C(=S)N/N=C(/c1ccccc1)c1ccccn1`, the TGI with CCRF-CEM leukemia was 1.09 µM; with HOP-62 NSCLC, 13.6 µM; in the test with KM12 colon, 19.6 µM; in the test on LOX IMVI melanoma, over 35.8 µM; in the test on MDA-N, 26.1 µM; in the test on NCI/ADR-RES ovarian it was 14.3 µM. Besides, the TGI was 11.3 µM with OVCAR-8 ovarian, 25.4 µM with SF-295 CNS, 4.83 µM in the test with SK-MEL-5 melanoma and 0.953 µM in the test with SR leukemia.
As to `CC[C@H](NC(=O)OC(C)(C)C)C(=O)NCP(=O)(OCc1ccc([N+](=O)[O-])cc1)OCc1ccc([N+](=O)[O-])cc1`, the TGI in the test with CCRF-CEM leukemia was over 100 µM; with HOP-62 NSCLC, over 100 µM; in the test with KM12 colon it was over 100 µM; with LOX IMVI melanoma it was over 100 µM; with MDA-N, 86.1 µM; in the test on NCI/ADR-RES ovarian, over 100 µM. Also, the TGI was over 100 µM in the test on OVCAR-8 ovarian, 55.7 µM with SF-295 CNS, 26.4 µM in the test with SK-MEL-5 melanoma and over 100 µM with SR leukemia.
Take `O=C(NC(C(F)(F)F)(C(F)(F)F)P(=O)(Cc1ccccc1)Cc1ccccc1)C(C(F)(F)F)C(F)(F)F`: the TGI was over 100 µM with CCRF-CEM leukemia; 41.6 µM in the test with HOP-62 NSCLC; 37.7 µM in the test on KM12 colon; 35.2 µM with LOX IMVI melanoma; 43.6 µM in the test on MDA-N; 44 µM in the test with NCI/ADR-RES ovarian. Further, the TGI in the test on OVCAR-8 ovarian came out at 46.5 µM; in the test with SF-295 CNS it was 44.6 µM; in the test with SK-MEL-5 melanoma, 29.1 µM; with SR leukemia, 80.6 µM.
Turning to `CN1c2ccccc2C2=C(c3ccccc3)CC[C@@H](C(=O)N3C4CC5CC[C@@]4(CS3(=O)=O)C5(C)C)[C@@H]21` (stereo not given in full), the TGI with CCRF-CEM leukemia, with HOP-62 NSCLC, in the test with KM12 colon, in the test on LOX IMVI melanoma, with MDA-N and in the test on NCI/ADR-RES ovarian was over 100 µM each time. For the same molecule, the TGI with OVCAR-8 ovarian, in the test on SF-295 CNS, in the test with SK-MEL-5 melanoma and with SR leukemia was over 100 µM throughout.
